Paper PMC9458059, “Design, Synthesis and Biological Evaluation of New Carbohydrate-Based Coumarin Derivatives as Selective Carbonic Anhydrase IX Inhibitors via “Click” Reaction” (Molecules, 2022)
Where two headings read alike, the source gives them in different places.

Tests used:
CAI = conditions: reported coumarins, Figure 1; cited from earlier work
CAII = conditions: reported coumarins, Figure 1; cited from earlier work
CAIX = conditions: reported coumarins, Figure 1; cited from earlier work
hCA I = target: T1, hCA I (Homo sapiens, UniProt P00915); test: CA inhibition by the esterase assay, hCA I; assay type: biochemical; conditions: for IC50: human recombinant enzyme, 4-nitrophenylacetate as substrate
T1 construct: purchased
T1 sequence (P00915 whole entry): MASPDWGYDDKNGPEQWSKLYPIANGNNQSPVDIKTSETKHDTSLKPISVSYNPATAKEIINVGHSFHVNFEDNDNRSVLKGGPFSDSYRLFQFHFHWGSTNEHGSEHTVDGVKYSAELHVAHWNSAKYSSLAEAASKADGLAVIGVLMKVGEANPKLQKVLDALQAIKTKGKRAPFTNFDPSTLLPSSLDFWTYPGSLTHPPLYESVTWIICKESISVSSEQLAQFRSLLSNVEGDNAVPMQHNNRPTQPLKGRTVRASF
Description: (§1) The esterase assay was used for testing the inhibitory activities of target compounds against carbonic anhydrases. […] Next, the stock solution of inhibitor was diluted to the specified concentration by using analysis buffer. […] In addition, the purchased CA was diluted with analysis buffer and added to 96-well plates. Next, different concentrations of inhibitors were also added to 96-well plates. To form the inhibitors and enzymes complex, E-I solutions were preincubated together for 4 h before the test at room temperature. Meanwhile, the nonenzymatic hydrolysis rates were tested by the blank control experiments. The absorbances were determined by using multifunctional enzyme marking instrument.

hCA IX = target: T2, hCA IX (Homo sapiens, UniProt Q16790); test: CA inhibition by the esterase assay, hCA IX; assay type: biochemical; conditions: for Inhibition of hCA IX (in words) / IC50: esterase assay; for IC50: human recombinant enzyme, 4-nitrophenylacetate as substrate; for Selectivity Ratio hCA I/hCA IX / Selectivity Ratio hCA II/hCA IX: ratio of IC50 values
T2 construct: purchased
Description: as §1

hCA II = hCA II (Homo sapiens, UniProt P00918); test: CA inhibition by the esterase assay, hCA II; assay type: biochemical; conditions: human recombinant enzyme, 4-nitrophenylacetate as substrate
Description: as §1

HT-29 cells = test: Cell viability MTT assay, HT-29; assay type: cell-based; conditions: Homo sapiens
Description: (§2) In the present study, the potential cytotoxicity of compounds 10a–10p was evaluated in vitro by MTT assay. […] So, half of each cell line were subjected to hypoxic conditions (0.5% O2, 5% CO2 and 94.5% N2) for inducing the expression of CA IX and the other half were incubated under normal conditions (normoxia). Subsequently, all synthesized derivatives were screened at a concentration of 100 μM to test their cytotoxicity in mentioned above cells.
(§3) The two human cancer cell lines were cultivated for 24 h at 37 °C in a 96-well plate. Subsequently, different concentrations of inhibitors were added to 96-well plate and then was incubated for 96 hours. After the MTT solution was added to per well, cancer cells were further incubated for 4 h at 37 °C. Finally, formazan crystals were dissolved by using DMSO. The cancer cells were from American Type Culture Collection.

MDA-MB-231 cells = test: Cell viability MTT assay, MDA-MB-231; assay type: cell-based; conditions: Homo sapiens
Description: as §2, §3

[1] = Metabolic stability in mouse liver microsomes; conditions: mouse, liver microsomes
HT-29 cancer cells = test: Extracellular pH measurement, HT-29; assay type: cell-based, human; conditions: HT-29, 0.1 and 0.5 mM, 48 h, normoxia and hypoxia
Description: (§4) One important feature of CA IX is regulating the pH of tumor cells. The expression of CA IX in solid tumors will make the extracellular pH become more acidic to promote tumor growth and metastasis. Therefore, the effect on extracellular pH of the representative compounds 10a and 10h was tested in hypoxia and normoxic conditions. […] Especially, the extracellular acidification of these two cancer cells could be slightly reversed by this compound under normoxic condition. In addition, the reversal of extracellular acidification is more significant under hypoxia condition. Furthermore, a dose-dependent effect was observed.
(§5) Figure 3 Extracellular pH measurement after 48 h of HT-29 and MDA-MB-231 cancer cells in normoxia and hypoxia upon treatment with compound 10a and 10h (0.1 and 0.5 mM).

MDA-MB-231 cancer cells = test: Extracellular pH measurement, MDA-MB-231; assay type: cell-based, human; conditions: MDA-MB-231, 0.1 and 0.5 mM, 48 h, normoxia and hypoxia
Description: as §4, §5

[2] = hypoxia (0.5% O2, 5% CO2 and 94.5% N2), read-out: Cell Viability (%) HT-29 Hypoxia
[3] = normoxia, read-out: Cell Viability (%) HT-29 Normoxia
[4] = hypoxia (0.5% O2, 5% CO2 and 94.5% N2), read-out: Cell Viability (%) MDA-MB-231 Hypoxia
[5] = normoxia, read-out: Cell Viability (%) MDA-MB-231 Normoxia

Row | Compound | Inhibition of hCA I (in words) (hCA I) | Inhibition of hCA IX (in words) (hCA IX) | IC50 (hCA I) [µM] | IC50 (hCA II) [µM] | IC50 (hCA IX) [µM] | Selectivity Ratio hCA I/hCA IX (hCA IX) | Selectivity Ratio hCA II/hCA IX (hCA IX) | melting point [°C] | CLint scaled at 1 μM [1] [mL/min/kg] | half-life at 1 μM [1] [h] | Ki (CAI) [µM] | Ki (CAII) [µM] | Ki (CAIX) [µM] | viability at 100 µM (HT-29 cells; [2]) [%] | viability at 100 µM (HT-29 cells; [3]) [%] | viability at 100 µM (MDA-MB-231 cells; [4]) [%] | viability at 100 µM (MDA-MB-231 cells; [5]) [%] | Effect on extracellular acidification (extracellular pH) (HT-29 cancer cells) | Effect on extracellular acidification (extracellular pH) (MDA-MB-231 cancer cells)
1 | O=c1ccc2ccccc2s1 [Thiocoumarin 3, thiocoumarin] | – | – | – | – | – | – | – | – | – | – | > 100 | – | – | – | – | – | – | – | –
2 | Cc1cc(=O)oc2cc(O[C@@H]3O[C@H](CO)[C@@H](O)[C@H](O)[C@H]3O)ccc12 [Compound 8] | – | – | – | – | – | – | – | – | – | – | 1 | > 100 | 0.37 | – | – | – | – | – | –
3 | O=c1ccc2ccc(O)cc2o1 [Umbelliferone, 7-hydroxy coumarin] | not at all inhibited | weakly inhibited | – | – | – | – | – | – | – | – | > 58.4 | > 100 | 0.478 | – | – | – | – | – | –
4 | S=c1ccc2ccccc2s1 [Dithiocoumarin 5, dithiocoumarin] | – | – | – | – | – | – | – | – | – | – | > 100 | > 100 | – | – | – | – | – | – | –
5 | S=c1ccc2ccccc2o1 [2-Thiocoumarin 4, 2-thioxocoumarin] | – | – | – | – | – | – | – | – | – | – | > 100 | > 100 | 6.7 | – | – | – | – | – | –
6 | Cc1cc(=O)oc2cc(O)ccc12 [4-Methylumbelliferone, 4-methyl-7-hydroxy coumarin, reference compound] | not at all inhibited | weakly inhibited | > 100 | > 100 | 0.6 | – | – | – | – | – | > 100 | > 100 | 0.56 | – | – | – | – | – | –
7 | O=c1ccc2ccccc2o1 [Compound 2] | – | – | – | – | – | – | – | – | – | – | – | – | > 50 | – | – | – | – | – | –
8 | Cc1cc(=O)oc2cc(O[C@@H]3O[C@H](CO)[C@@H](O)[C@H](O)[C@@H]3O)ccc12 [Compound 9] | – | – | – | – | – | – | – | – | – | – | > 100 | > 100 | 0.0092 | – | – | – | – | – | –

Continued, in another order:

Row | Inhibition of hCA I (in words) (hCA I) | Inhibition of hCA IX (in words) (hCA IX) | IC50 (hCA I) [µM] | IC50 (hCA II) [µM] | IC50 (hCA IX) [µM] | Selectivity Ratio hCA I/hCA IX (hCA IX) | Selectivity Ratio hCA II/hCA IX (hCA IX) | melting point [°C] | CLint scaled at 1 μM [1] [mL/min/kg] | half-life at 1 μM [1] [h] | Compound | Ki (CAI) [µM] | Ki (CAII) [µM] | Ki (CAIX) [µM] | viability at 100 µM (HT-29 cells; [2]) [%] | viability at 100 µM (HT-29 cells; [3]) [%] | viability at 100 µM (MDA-MB-231 cells; [4]) [%] | viability at 100 µM (MDA-MB-231 cells; [5]) [%] | Effect on extracellular acidification (extracellular pH) (HT-29 cancer cells) | Effect on extracellular acidification (extracellular pH) (MDA-MB-231 cancer cells)
9 | – | – | 65.6 | 31.7 | 0.042 | 1562 | 755 | 133.1 to 135.1 | 3.75 | 24.4 | O=c1ccc2ccc(OCc3cn([C@@H]4OC[C@H](O)[C@H](O)[C@H]4O)nn3)cc2o1 [Compound 10f, 7-[(1-β-. L-arabinopyranosyl-1H-1,2,3-triazol-4-yl)methoxy]-2H-chromen-2-one] | – | – | – | 38.1 | 48.7 | 33.8 | 65.6 | – | –
10 | – | – | 56.9 | 31.4 | 0.032 | 1778 | 981 | 126.2 to 128.4 | 3.07 | 29.8 | Cc1cc(=O)oc2cc(OCc3cn([C@@H]4O[C@H](CO)[C@@H](O)[C@H](O)[C@H]4N)nn3)ccc12 [Compound 10l, 7-[(1-β-. D-glucosaminogly-1H-1,2,3-triazol-4-yl)methoxy]-4-methyl-2H-chromen-2-one] | – | – | – | 44.8 | 51.2 | 38.5 | 65.1 | – | –
11 | – | – | 63.4 | 22.4 | 0.098 | 647 | 229 | 123.2 to 125.6 | 2.98 | 30.7 | Cc1cc(=O)oc2cc(OCc3cn([C@@H]4O[C@H](CO)[C@@H](O)[C@H]4O)nn3)ccc12 [Compound 10p, 7-[(1-β-. D-ribofuranosyl-1H-1,2,3-triazol-4-yl)methoxy]-4-methyl-2H-chromen-2-one] | – | – | – | 36.7 | 63.1 | 35.2 | 73.1 | – | –
12 | – | – | 35.7 | 12.2 | 0.045 | 793 | 271 | 129.3 to 132.5 | 3.56 | 25.7 | Cc1cc(=O)oc2cc(OCc3cn([C@@H]4OC[C@H](O)[C@H](O)[C@H]4O)nn3)ccc12 [Compound 10n, 7-[(1-β-. L-arabinopyranosyl-1H-1,2,3-triazol-4-yl)methoxy]-4-methyl-2H-chromen-2-one] | – | – | – | 38.2 | 41.5 | 38.5 | 65.7 | – | –
13 | – | – | 44.1 | 16.1 | 0.098 | 450 | 164 | 124.2 to 126.6 | 3.5 | 26.1 | Cc1cc(=O)oc2cc(OCc3cn([C@@H]4O[C@H](CO)[C@H](O)[C@H](O)[C@H]4O)nn3)ccc12 [Compound 10j, 7-[(1-β-. D-galactopyranosyl-1H-1,2,3-triazol-4-yl)methoxy]-4-methyl-2H-chromen-2-one] | – | – | – | 46.4 | 60.2 | 40.9 | 64.7 | – | –
14 | – | – | 36.5 | 31.6 | 0.124 | 294 | 255 | 126.1 to 129.6 | 3.65 | 25 | C[C@@H]1O[C@H](n2cc(COc3ccc4ccc(=O)oc4c3)nn2)[C@H](O)[C@H](O)[C@H]1O [Compound 10g, 7-[(1-β-. L-rhamnosyl-1H-1,2,3-triazol-4-yl)methoxy]-2H-chromen-2-one] | – | – | – | 38.7 | 42.4 | 36.1 | 53.2 | – | –
15 | – | – | 51.5 | 32.8 | 0.057 | 904 | 575 | 131.3 to 134.2 | 4.26 | 21.5 | N[C@@H]1[C@@H](O)[C@H](O)[C@@H](CO)O[C@H]1n1cc(COc2ccc3ccc(=O)oc3c2)nn1 [Compound 10d, 7-[(1-β-. D-glucosaminogly-1H-1,2,3-triazol-4-yl)methoxy]-2H-chromen-2-one] | – | – | – | 45.6 | 57 | 38.9 | 60.2 | – | –
16 | – | – | 23.3 | 19 | 0.132 | 177 | 144 | 131.2 to 133.6 | 4.21 | 21.7 | O=c1ccc2ccc(OCc3cn([C@@H]4O[C@H](CO)[C@@H](O)[C@H]4O)nn3)cc2o1 [Compound 10h, 7-[(1-β-. D-ribofuranosyl-1H-1,2,3-triazol-4-yl)methoxy]-2H-chromen-2-one] | – | – | – | 43.5 | 54 | 37.2 | 63.7 | weaker reversal effect of extracellular acidification | weaker reversal effect of extracellular acidification
